Assay results: patent publication US9381195B2, “Derivatives of azaindazole or diazaindazole type for treating pain” (PIERRE FABRE MEDICAMENT, priority 2012, dated 2016)

Assays:
[1] = target: T1, TrkA (Homo sapiens, UniProt P04629); assay: Test for measuring inhibition of TrkA kinase (Millipore or Kinome Scan, manufacturer's protocols); format: biochemical; details: read-out: Enzymatic inhibition at 10 nM (%) TrkA
T1 construct: purchased Millipore or Kinome Scan (DiscoverX)
Source text: (§1) Test for Measuring Inhibition of TrkA, TrkB or TrkC Kinase
(§2) These kinases are produced by Millipore or Kinome Scan (DiscoverX) and are screened according to the manufacturer's protocols.

[2] = target: T2, TrkB (Homo sapiens, UniProt Q16620); assay: Test for measuring inhibition of TrkB kinase (Millipore or Kinome Scan, manufacturer's protocols); format: biochemical; details: read-out: Enzymatic inhibition at 10 nM (%) TrkB
T2 construct: purchased Millipore or Kinome Scan (DiscoverX)
T2 sequence (Q16620 32-822): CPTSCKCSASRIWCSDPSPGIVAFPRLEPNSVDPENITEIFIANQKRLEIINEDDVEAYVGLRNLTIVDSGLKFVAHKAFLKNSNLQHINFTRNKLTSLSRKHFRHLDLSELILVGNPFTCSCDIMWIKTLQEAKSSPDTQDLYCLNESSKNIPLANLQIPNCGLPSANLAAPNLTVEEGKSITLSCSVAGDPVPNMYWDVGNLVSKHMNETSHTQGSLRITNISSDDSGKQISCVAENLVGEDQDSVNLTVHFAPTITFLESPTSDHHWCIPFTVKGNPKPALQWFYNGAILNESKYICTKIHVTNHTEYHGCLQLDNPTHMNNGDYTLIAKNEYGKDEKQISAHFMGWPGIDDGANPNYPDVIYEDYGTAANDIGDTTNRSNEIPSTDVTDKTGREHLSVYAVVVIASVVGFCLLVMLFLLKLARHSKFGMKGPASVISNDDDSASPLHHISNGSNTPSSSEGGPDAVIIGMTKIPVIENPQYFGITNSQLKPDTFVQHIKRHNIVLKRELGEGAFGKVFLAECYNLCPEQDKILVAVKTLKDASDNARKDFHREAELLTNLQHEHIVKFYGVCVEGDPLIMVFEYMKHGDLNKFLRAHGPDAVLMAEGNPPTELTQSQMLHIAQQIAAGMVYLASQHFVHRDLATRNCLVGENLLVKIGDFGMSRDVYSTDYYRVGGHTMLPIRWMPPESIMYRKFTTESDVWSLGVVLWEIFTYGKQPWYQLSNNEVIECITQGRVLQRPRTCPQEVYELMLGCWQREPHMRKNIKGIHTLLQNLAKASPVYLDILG
Source text: as §1, §2

[3] = target: T3, TrkC (Homo sapiens, UniProt Q16288); assay: Test for measuring inhibition of TrkC kinase (Millipore or Kinome Scan, manufacturer's protocols); format: biochemical; details: read-out: Enzymatic inhibition at 10 nM (%) TrkC
T3 construct: purchased Millipore or Kinome Scan (DiscoverX)
T3 sequence (Q16288 32-839): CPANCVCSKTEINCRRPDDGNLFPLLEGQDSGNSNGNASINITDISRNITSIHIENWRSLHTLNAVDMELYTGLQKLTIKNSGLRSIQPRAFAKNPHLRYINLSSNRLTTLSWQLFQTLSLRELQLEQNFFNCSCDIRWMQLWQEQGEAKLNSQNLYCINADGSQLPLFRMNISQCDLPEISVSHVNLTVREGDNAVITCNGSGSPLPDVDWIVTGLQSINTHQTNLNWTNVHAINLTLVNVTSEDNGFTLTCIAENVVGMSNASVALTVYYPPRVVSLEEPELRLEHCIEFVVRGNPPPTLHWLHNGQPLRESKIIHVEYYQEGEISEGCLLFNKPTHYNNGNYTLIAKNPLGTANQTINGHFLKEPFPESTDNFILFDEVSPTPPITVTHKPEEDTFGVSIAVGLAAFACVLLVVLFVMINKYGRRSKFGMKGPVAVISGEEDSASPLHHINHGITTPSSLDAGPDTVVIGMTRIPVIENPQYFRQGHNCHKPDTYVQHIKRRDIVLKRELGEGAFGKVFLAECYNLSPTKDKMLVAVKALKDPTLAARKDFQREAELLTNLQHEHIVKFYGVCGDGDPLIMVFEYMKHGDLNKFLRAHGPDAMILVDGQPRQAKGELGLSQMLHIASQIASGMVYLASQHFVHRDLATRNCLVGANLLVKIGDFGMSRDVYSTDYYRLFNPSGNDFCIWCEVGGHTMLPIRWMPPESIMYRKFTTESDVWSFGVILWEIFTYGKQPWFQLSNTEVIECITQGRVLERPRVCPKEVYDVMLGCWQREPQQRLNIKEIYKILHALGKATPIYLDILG
Source text: as §1, §2

[4] = system: NGF-induced hyperalgesia; assay: In vivo analgesic activity against NGF-induced hyperalgesia (hot plate); details: mouse; for inhibition of NGF-induced hyperalgesia (latency time): given 30 min before NGF, hot plate four hours after NGF
Experimental: In Vivo Analgesic Activity Against NGF-Induced Hyperalgesia Compounds of general formula (I), and particularly compound 30 have been tested in vivo in the mouse receiving an intraplantar injection of NGF. This treatment elicits thermal hyperalgesia (Schuligoi et al., 1998, Neuroscience Letters 252:147-149). Briefly, male mice received a 10 μl subcutaneous injection of NGFβ (1 μg; SIGMA) into the plantar surface of the right hind paw. Following the injection, mice were returned to their cages. Four hours after NGF injection, mice were placed on the centre of the hot plate analgesimeter (BIO-HC2.00, Bioseb, France), and the latency time to the first brisk lift or lick of a hind paw or jumping will be recorded. A maximum cut-off time of 60 sec is used to prevent tissue damage. Results are given as the mean±s.e.m. of the latency time. Test compounds were given 30 min before NGF injection.

[5] = system: formalin test (paw licking); assay: In vivo analgesic activity in the formalin test; parameters: species or system rat; details: rats, second phase of the formalin test, vs. vehicle-treated animals, P<0.05
Source text: In Vivo Analgesic Activity in the Formalin Test in Rats The method was adapted from Wheeler-Aceto et al. (Pain, 1990, 40:229-38) and Bardin et al. (2003, Pharmacology 67: 182-194). In the second phase of the test, Compound 30 inhibited paw licking by 44% vs. vehicle-treated animals (P<0.05 by ANOVA).

[6] = system: inflammatory pain induced by Complete Freund Adjuvant (CFA); assay: In vivo analgesic activity against acute and chronic inflammatory pain induced by Complete Freund Adjuvant (CFA); details: rat
Source text: In Vivo Analgesic Activity Against Acute and Chronic Inflammatory Pain Induced by Complete Freund Adjuvant (CFA)
Male Sprague-Dawley rats [Crl:OFA(SD) Charles River Lyon, France] weighing 160-180 g upon arrival were used. Rats were first daily habituated to handling and to the test apparatus used for the von-Frey and hot-plate models one week before the induction of inflammation. On the following Monday, they were subjected to nociceptive tests for determination of basal scores. Then, rats will be given a 100 μl subcutaneous injection of CFA (1 mg/1 ml; Sigma) into the plantar surface of the right hind paw (day 0: D0). Saline was injected by the same route in the placebo group.
Then each rat was placed on an elevated plastic mesh in a clear plastic cage and the number of spontaneous flinches (measurement of spontaneous pain) was recorded during 10 min. Mechanical allodynia was assessed using the von Frey Hair test. Each rat was placed on an elevated plastic mesh in a clear plastic cage and allowed to adapt to the testing environment for at least 5 min. The von Frey Hairs (Semmes-Weinstein monofilaments, Stoelting Ill., USA; 0.6, 1.4, 2, 4, 6, 8, 10, and 15 g) was applied to the plantar surface of the injected paw from below the mesh floor for […] in the ascending order. The threshold was determined as the lowest force that evoked a withdrawal response. The test was repeated three times with an interval of 5 min between each test. The paw withdrawal score to the tactile stimulus was determined as the average of the 3 measurements. Animals received intraperitoneal or oral injections of test compounds. […] Compound completely or nearly completely reversed spontaneous pain from 0.16 mg/kg and mechanical allodynia from 2.5 mg/kg.

[7] = system: bone cancer pain; assay: In vivo analgesic activity against chronic pain in a model of bone cancer pain (NCTC 2472 fibrosarcoma cells in tibia); parameters: species or system mouse; details: C3H/HeNCrl mice
Experimental: In Vivo Analgesic Activity Against Chronic Pain in a Model of Bone Cancer Pain
Bone cancer produces one of the most painful conditions that affect humans and animals. […] Several models of murine osteosarcoma-induced pain have been developed (Pacharinsak and Beitz, Animal models of cancer pain. Comp Med. 2008 June; 58:220-33.).
We induced bone cancer pain by implanting 10 μl of PBS containing 2×10^5 NCTC 2472 osteolytic fibrosarcoma cells into the tibia of 5-6 week-old C3H/HeNCrl mice under isoflurane anesthesia. The presence of these cells induces osteolytic lesions in bone due to both an increase in the number of osteoclasts and to their activation, which leads to the destruction of bone tissue and the invasion of the adjacent soft tissue and pain related behaviours. Pain-related behaviours were evaluated both prior to and at 3, 7, 10, 14 and 17 days following tumor cell injection. The following behaviors were evaluated: • Limb use during spontaneous ambulation on a scale of 0-4 where 0=normal use and 4=no use of the injected hind paw; • Light touch-evoked pain. Light touch induced flinching were measured after the 1 min period of non noxious stimulation of the tumor injected paw with a small paint brush. The numbers of flinches were recorded over 5 min. […]

[8] = target: T4, TrkA (or NTRK1) (Homo sapiens, UniProt P04629); assay: In vitro kinase glo plus-based kinase assay, TrkA; format: biochemical; details: comparative experiments; 30 μM ATP
T4 construct: using the soluble intracellular segment of theses receptors, containing the kinase activity; purchased Millipore
T4 sequence (P04629 440-796 limits assumed): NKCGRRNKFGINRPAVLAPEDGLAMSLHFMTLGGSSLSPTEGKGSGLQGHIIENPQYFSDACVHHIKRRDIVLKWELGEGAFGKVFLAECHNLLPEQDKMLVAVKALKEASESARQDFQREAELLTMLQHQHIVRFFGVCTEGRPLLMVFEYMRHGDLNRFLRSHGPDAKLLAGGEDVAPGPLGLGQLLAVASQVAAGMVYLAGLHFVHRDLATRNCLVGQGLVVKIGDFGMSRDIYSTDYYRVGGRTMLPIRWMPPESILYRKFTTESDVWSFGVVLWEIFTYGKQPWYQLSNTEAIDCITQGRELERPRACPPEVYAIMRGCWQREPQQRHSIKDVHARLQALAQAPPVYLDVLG
Experimental: (§3) Plates were removed from incubator, and 50 μl of kinase-glo plus was added to each well, followed by a 10 minute incubation at room temperature. The luciferase-induced luminescence, which is proportional to the ATP remaining in the well, was measured on a luminometer. Controls on each plates included wells with the kinase alone (maximal ATP consumption, or 0% inhibition), wells without the kinase (maximal ATP signal or 100% inhibition), and wells with 20 μM staurosporine (positive control of inhibition).

[9] = target: T5, TrkB (or NTRK2) (Homo sapiens, UniProt Q16620); assay: In vitro kinase glo plus-based kinase assay, TrkB; format: biochemical; details: comparative experiments; 40 μM ATP
T5 construct: using the soluble intracellular segment of theses receptors, containing the kinase activity; purchased Invitrogen
T5 sequence (Q16620 455-822 limits assumed): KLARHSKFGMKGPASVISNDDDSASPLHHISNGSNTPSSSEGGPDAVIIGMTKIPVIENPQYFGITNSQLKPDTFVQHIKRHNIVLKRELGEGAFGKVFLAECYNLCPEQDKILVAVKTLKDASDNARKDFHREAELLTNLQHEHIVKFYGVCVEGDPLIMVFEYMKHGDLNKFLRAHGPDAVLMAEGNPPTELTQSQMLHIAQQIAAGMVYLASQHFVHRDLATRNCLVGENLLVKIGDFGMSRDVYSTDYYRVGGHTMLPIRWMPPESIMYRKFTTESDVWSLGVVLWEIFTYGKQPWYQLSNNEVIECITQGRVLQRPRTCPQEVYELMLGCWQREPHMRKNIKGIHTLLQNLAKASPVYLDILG
Experimental: as §3, with “An in vitro kinase glo plus-based kinase assay (Promega) was developed in a 96 wells assay plate format to assess the inhibiting properties of compounds on tropomyosin related kinases (Trk) receptors, using the soluble intracellular segment of theses receptors, containing the kinase activity (TrkA (or NTRK1; 400 ng/well; […] Invitrogen)). […] Plates” for “Plates”, “inhibition). […] N=42; […]” for “inhibition).”

T1 sequence (P04629 33-796): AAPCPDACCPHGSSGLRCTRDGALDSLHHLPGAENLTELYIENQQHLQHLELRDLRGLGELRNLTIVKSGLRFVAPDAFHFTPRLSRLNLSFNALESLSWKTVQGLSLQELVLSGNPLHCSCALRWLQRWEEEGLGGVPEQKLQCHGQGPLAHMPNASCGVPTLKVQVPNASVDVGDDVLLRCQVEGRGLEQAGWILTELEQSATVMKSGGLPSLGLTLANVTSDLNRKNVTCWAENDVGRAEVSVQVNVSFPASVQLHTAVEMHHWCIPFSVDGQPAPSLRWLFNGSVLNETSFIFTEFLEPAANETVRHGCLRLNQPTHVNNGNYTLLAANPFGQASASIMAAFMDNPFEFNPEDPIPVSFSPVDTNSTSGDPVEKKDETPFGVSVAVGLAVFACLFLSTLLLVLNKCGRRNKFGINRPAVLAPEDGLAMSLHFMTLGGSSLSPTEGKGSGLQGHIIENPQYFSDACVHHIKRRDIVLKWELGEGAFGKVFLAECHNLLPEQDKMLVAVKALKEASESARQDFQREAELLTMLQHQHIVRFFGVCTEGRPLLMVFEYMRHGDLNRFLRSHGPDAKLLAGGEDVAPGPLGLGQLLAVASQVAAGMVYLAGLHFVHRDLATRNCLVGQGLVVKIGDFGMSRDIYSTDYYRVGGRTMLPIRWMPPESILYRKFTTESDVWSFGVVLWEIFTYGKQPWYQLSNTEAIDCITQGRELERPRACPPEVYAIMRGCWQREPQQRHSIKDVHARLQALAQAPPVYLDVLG

inhibition at 0.01 µM [1]	inhibition at 0.01 µM [2]	inhibition at 0.01 µM [3]	IC50 [8]	IC50 [9]	SMILES	further results
97.8%	93%	96.8%	–	–	CN1CCN(c2ccc(C(=O)Nc3n[nH]c4ncc(S(=O)(=O)c5cc(F)cc(F)c5)cc34)c(NC3CCOCC3)c2)CC1 [Compound 27-1, N-(5-(3,5-difluorophenylsulfonyl)-1H-pyrazolo[3,4-b]pyridin-3-yl)-4-(4-methylpiperazin-1-yl)-2-(tetrahydro-2H-pyran-4-ylamino)benzamide]	–
93.8%	84%	64%	0.045 µM	0.031 µM	CN1CCN(c2ccc(C(=O)Nc3n[nH]c4ncc(Sc5cc(F)cc(F)c5)cc34)c(NC3CCOCC3)c2)CC1 [Compound 30, N-(5-(3,5-difluorophenylthio)-1-H-pyrazolo[3,4-b]pyridine-3-yl)-4-(4-methylpiperazine-1-yl)-2-(tetrahydro-2H-pyran-4-ylamino)benzamide]	doses at which complete or nearly complete reversion of NGF-induced hyperalgesia occurred ([4]; intraperitoneal or oral route, P<0.05 vs NGF alone): ≤ 10 mg/kg; inhibition of NGF-induced hyperalgesia (latency time) ([4]; intraperitoneal route, FIG. 1A): dose-dependently inhibited; inhibition of NGF-induced hyperalgesia (latency time) ([4]; oral route, FIG. 1B): dose-dependently inhibited; inhibition of paw licking [5]: 44%; dose from which spontaneous pain was completely or nearly completely reversed ([6]; flinches): ≥ 0.16 mg/kg; inhibition of spontaneous flinches (acute inflammatory pain) ([6]; intraperitoneal injection, FIG. 2A): dose-dependently inhibited; inhibition of mechanical allodynia (von Frey) ([6]; oral administration, FIG. 2B): dose-dependently inhibited; dose from which mechanical allodynia was completely or nearly completely reversed ([6]; von Frey): ≥ 2.5 mg/kg; light touch-evoked flinching ([7]; 2.5 mg/kg i.p. chronically from day 7, effect from day 8, FIG. 3B): significantly reduced; limb use score ([7]; 2.5 mg/kg i.p. chronically from day 7, effect from day 10, FIG. 3A): significantly reduced
–	–	–	~10 µM	> 100 µM	CN1CCN(c2ccc(C(=O)Nc3n[nH]c4nc(Nc5cc(F)cc(F)c5)ncc34)c(NC3CCOCC3)c2)CC1 [A]	–
–	–	–	22 µM	35 µM	Nc1n[nH]c2ncc(Sc3cc(F)cc(F)c3)cc12 [D]	–
99%	96.6%	97.3%	–	–	CN1CCN(c2ccc(C(=O)Nc3n[nH]c4ncc(S(=O)(=O)Nc5cc(F)cc(F)c5)cc34)c(NC3CCOCC3)c2)CC1 [Compound 30-8, N-(5-(N-(3,5-difluorophenyl)sulfamoyl)-1H-pyrazolo[3,4-b]pyridin-3-yl)-4-(4-methylpiperazin-1-yl)-2-(tetrahydro-2H-pyran-4-ylamino)benzamide]	–
–	–	–	2.1 µM	5.8 µM	CN1CCN(c2ccc(C(=O)Nc3n[nH]c4nc(Nc5ccc(F)cc5F)ccc34)c(NC3CCOCC3)c2)CC1 [C]	–
–	–	–	3.3 µM	18 µM	CN1CCN(c2ccc(C(=O)Nc3n[nH]c4nc(Nc5ccc(F)cc5F)ncc34)c(NC3CCOCC3)c2)CC1 [B]	–
55%	98%	–	–	–	CN1CCN(c2ccc(C(=O)Nc3n[nH]c4ncc(Cc5cc(F)cc(F)c5)cc34)c(NC3CCOCC3)c2)CC1 [Compound 30-9, N-(5-(3,5-difluorobenzyl)-1H-pyrazolo[3,4-b]pyridin-3-yl)-4-(4-methylpiperazin-1-yl)-2-(tetrahydro-2H-pyran-4-ylamino)benzamide]	–
97.4%	88%	93.4%	–	–	CN1CCN(c2ccc(C(=O)Nc3n[nH]c4nc(N)c(Sc5cc(F)cc(F)c5)cc34)c(NC3CCOCC3)c2)CC1 [Compound 14-11, N-(6-amino-5-(3,5-difluorophenylthio)-1H-pyrazolo[3,4-b]pyridin-3-yl)-4-(4-methylpiperazin-1-yl)-2-(tetrahydro-2H-pyran-4-ylamino)benzamide]	–
